Experiments:
Format in all cases: biochemical
[1] = biological target: T1, β-D-glucuronidase (E. coli) (Escherichia coli, UniProt P05804); test: Glycosidase inhibition, Table 6 (Laboratory 1)
T1 construct: purchased Sigma-Aldrich Co
From the text: (§1) The enzymes α-D-glucosidase (from yeast), β-D-glucosidases (from almond and bovine liver), α-D-galactosidase (from coffee beans), β-D-galactosidase (from bovine liver), α-D-mannosidase (from Jack bean), β-D-mannosidase (from snail), α-L-rhamnosidase (from Penicillium decumbens), α-L-fucosidase (from bovine kidney), trehalase (from porcine kidney), β-D-glucuronidases (from E. coli and bovine liver), amyloglucosidase (from A. niger), para-nitrophenyl glycosides, and various disaccharides were purchased from Sigma-Aldrich Co. (St. Louis, MO, USA).
(§2) Brush border membranes were prepared from the rat small intestine according to the method of Kessler et al., and were assayed at pH 6.8 for rat intestinal maltase using maltose. For rat intestinal maltase, porcine kidney trehalase, and A. niger amyloglucosidase activities, the reaction mixture contained maltose (25 mM) and the appropriate amount of enzyme, and the incubations were performed for 10–30 min at 37 °C. The reaction was stopped by heating at 100 °C for 3 min. After centrifugation (600× g; 10 min), the resulting reaction mixture was added to the Glucose CII-test Wako (Wako Pure Chemical Ind., Osaka, Japan). The absorbance at 505 nm was measured to determine the amount of the released D-glucose. Other glycosidase activities were determined using an appropriate para-nitrophenyl glycoside as substrate at the optimum pH of each enzyme. The reaction mixture contained the substrate (2 mM) and the appropriate amount of enzyme. The reaction was stopped by the addition of Na2CO3 (400 mM). The released para-nitrophenol was measured spectrometrically at 400 nm. All reactions run in methanol.

[2] = biological target: T2, β-D-galactosidase (bovine liver) (Bos taurus, UniProt Q58D55); test: Glycosidase inhibition, Table 6 (Laboratory 1)
T2 sequence (Q58D55 28-653): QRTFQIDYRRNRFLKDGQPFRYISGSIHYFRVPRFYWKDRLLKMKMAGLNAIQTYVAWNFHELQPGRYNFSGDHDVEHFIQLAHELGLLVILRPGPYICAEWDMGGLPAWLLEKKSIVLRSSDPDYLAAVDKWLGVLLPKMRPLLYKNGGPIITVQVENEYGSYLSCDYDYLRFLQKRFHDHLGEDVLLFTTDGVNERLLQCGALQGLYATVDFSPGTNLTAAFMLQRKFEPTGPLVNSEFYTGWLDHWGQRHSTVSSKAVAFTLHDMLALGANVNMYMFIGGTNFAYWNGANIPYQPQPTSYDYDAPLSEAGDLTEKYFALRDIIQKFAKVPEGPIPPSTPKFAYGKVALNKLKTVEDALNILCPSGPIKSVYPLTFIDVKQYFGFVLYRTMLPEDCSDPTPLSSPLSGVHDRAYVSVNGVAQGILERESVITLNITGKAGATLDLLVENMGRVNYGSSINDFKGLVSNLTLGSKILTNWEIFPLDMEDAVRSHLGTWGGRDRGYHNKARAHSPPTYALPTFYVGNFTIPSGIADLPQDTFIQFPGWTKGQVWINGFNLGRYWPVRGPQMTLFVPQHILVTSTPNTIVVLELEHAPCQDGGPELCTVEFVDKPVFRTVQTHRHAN
From the text: as §1, §2

[3] = system: α-D-glucosidase (rat intestinal maltase); test: Glycosidase inhibition, Table 6 (Laboratory 1)
From the text: as §1, §2

β-D-glucosidase (almond) = test: Glycosidase inhibition, Table 6 (Laboratory 1)
From the text: as §1, §2

[4] = system: β-D-glucosidase (bovine liver); test: Glycosidase inhibition, Table 6 (Laboratory 1)
From the text: as §1, §2

[5] = system: β-D-glucuronidase (bovine liver); test: Glycosidase inhibition, Table 6 (Laboratory 1)
From the text: as §1, §2

[6] = system: panel of eight glycosidases; test: Glycosidase inhibition, whole panel of Table 7; conditions: 1 mg/mL aqueous solution added
Experimental: (§3) All enzymes and para-nitrophenyl substrates were purchased from Sigma. Enzymes were assayed at 27 °C in citric acid (0.1M)/disodium hydrogen phosphate (0.2 M) buffers at the optimum pH for the enzyme. The incubation mixture consisted of […] enzyme solution, […] of 1 mg/mL aqueous solution of extract, and […] of the appropriate 5 mM para-nitrophenyl substrate made up in buffer at the optimum pH for the enzyme. The reactions were stopped by the addition of […] 0.4 M glycine (pH 10.4) during the exponential phase of the reaction, which had been determined at the beginning using uninhibited assays in which water replaced the inhibitor. Final absorbances were read at 405 nm using a Versamax microplate reader (Molecular Devices). Assays were carried out in triplicate, and the values given are the means of the three replicates per assay. All reactions run in water.

[7] = system: N-acetyl-β-D-glucosaminidase (bovine kidney); test: Glycosidase inhibition, Table 7; conditions: 1 mg/mL aqueous solution added, 27 °C, run in water
Experimental: as §3

[8] = biological target: T3, α-D-mannosidase (Jack bean) (Canavalia ensiformis, UniProt C0HJB3); test: Glycosidase inhibition, Table 7; conditions: 1 mg/mL aqueous solution added, 27 °C, run in water; for inhibition at 1000 µg/mL (stock): read-out: α-D-Mannosidase Jack Bean, percentage inhibition
T3 construct: purchased Sigma
T3 sequence (C0HJB3 1-981): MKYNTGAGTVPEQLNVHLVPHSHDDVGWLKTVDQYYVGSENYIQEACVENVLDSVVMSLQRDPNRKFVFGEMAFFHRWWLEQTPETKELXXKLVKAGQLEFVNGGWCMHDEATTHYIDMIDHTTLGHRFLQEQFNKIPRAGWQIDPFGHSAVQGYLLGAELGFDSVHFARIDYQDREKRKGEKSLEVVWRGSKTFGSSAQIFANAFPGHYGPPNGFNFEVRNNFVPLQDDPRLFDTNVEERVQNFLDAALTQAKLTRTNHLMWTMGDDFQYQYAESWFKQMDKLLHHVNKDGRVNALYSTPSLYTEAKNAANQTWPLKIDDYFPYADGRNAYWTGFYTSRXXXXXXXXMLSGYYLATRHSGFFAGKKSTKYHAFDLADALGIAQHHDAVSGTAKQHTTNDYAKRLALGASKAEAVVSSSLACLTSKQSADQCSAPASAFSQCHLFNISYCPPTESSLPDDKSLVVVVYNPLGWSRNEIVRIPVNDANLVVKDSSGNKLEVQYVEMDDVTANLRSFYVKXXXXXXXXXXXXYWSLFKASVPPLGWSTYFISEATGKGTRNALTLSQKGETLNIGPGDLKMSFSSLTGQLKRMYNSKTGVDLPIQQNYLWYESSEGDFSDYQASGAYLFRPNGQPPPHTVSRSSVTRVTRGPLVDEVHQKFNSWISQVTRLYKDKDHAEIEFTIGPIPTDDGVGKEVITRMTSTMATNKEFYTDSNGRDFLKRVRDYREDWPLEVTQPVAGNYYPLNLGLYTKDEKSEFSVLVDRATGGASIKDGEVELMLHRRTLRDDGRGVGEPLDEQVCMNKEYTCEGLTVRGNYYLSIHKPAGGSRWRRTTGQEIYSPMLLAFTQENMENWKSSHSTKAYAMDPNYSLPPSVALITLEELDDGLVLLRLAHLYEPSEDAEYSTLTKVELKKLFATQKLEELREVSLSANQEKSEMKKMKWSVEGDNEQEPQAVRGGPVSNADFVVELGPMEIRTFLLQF
Experimental: as §3

T1 sequence (P05804 whole entry): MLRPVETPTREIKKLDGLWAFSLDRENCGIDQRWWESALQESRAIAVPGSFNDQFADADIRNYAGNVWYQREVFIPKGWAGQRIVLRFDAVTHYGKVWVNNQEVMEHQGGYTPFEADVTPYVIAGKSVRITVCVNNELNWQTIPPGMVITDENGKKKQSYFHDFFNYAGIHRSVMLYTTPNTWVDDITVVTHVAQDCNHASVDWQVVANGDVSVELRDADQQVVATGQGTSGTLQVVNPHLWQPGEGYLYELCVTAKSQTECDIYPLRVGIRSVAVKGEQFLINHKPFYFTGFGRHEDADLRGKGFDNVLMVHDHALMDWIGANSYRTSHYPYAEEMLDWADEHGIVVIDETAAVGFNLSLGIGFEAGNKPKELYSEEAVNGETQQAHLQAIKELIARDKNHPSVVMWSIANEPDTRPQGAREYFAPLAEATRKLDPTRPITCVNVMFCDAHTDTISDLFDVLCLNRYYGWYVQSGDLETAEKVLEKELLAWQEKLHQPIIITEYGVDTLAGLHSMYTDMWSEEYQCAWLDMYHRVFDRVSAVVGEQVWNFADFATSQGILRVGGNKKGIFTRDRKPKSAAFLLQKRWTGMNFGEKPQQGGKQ

Row | Compound | inhibition at 100 µM [1] | inhibition at 100 µM [2] | α-D-Glucosidase Rat Intestinal Maltase, inhibition % at 100 μM [3] | β-D-Glucosidase Almond, inhibition % at 100 μM (β-D-glucosidase (almond)) | β-D-Glucosidase Bovine Liver, inhibition % at 100 μM [4] | β-D-Glucuronidase Bovine Liver, inhibition % at 100 μM [5] | inhibition at 1000 µM [1] | α-D-Glucosidase Rat Intestinal Maltase, inhibition % at 1000 μM [3] | β-D-Glucosidase Almond, inhibition % at 1000 μM (β-D-glucosidase (almond)) | β-D-Glucosidase Bovine Liver, inhibition % at 1000 μM [4] | β-D-Glucuronidase Bovine Liver, inhibition % at 1000 μM [5] | β-D-Glucuronidase E. coli, inhibition % at 100 μM ([1]; 100 μM) | β-D-Galactosidase Bovine Liver, inhibition % at 100 μM ([2]; 100 μM) | inhibitions across the panel (Table 7) [6] | N-Acetyl-β-D-glucosaminidase Bovine Kidney, percentage inhibition [7] | α-D-Mannosidase Jack Bean, percentage inhibition [8] | β-D-Glucuronidase E. coli, inhibition % at 1000 μM ([1]; 1000 μM) | β-D-Galactosidase Bovine Liver, inhibition % at 1000 μM ([2]; 1000 μM) | inhibition at 1000 µg/mL (stock) [8]
1 | OC[C@H](O)[C@@H]1[C@H](O)[C@H](O)CN1Cc1ccccc1 [Compound 5, N-Benzyl-1,4-dideoxy-1,4-imino-L-gulitol] | 0% | 0% | ^c NI ^d (12.9%) | ^c NI ^d (0%) | ^c NI ^d (3.3%) | ^c NI ^d (3.7%) | – | – | – | – | – | – | – | – | – | – | – | – | –
2 | CC1(C)O[C@H]2O[C@H]3[C@@H]([C@H]2O1)N(Cc1ccc(B2OC(C)(C)C(C)(C)O2)cc1)C[C@H]3O [para 6, N-(4-Methylphenylboronic acid pinacol ester)-3,6-dideoxy-3,6-imino-1,2-O-isopropylidene-α-D-gulofuranose] | 3.2% | 22.3% | ^c NI ^d (0%) | ^c NI ^d (0%) | ^c NI ^d (13%) | ^c NI ^d (0%) | – | – | – | – | – | – | – | – | – | – | – | – | –
3 | OB(O)c1ccc(CN2CC(O)C3OC(O)C(O)C32)cc1 [para 7, N-(4-Methylphenylboronic acid)-3,6-dideoxy-3,6-imino-D-gulofuranose] | – | – | – | – | – | – | 17.8% | ^a NI ^b (0%) | ^a NI ^b (43.6%) | ^a NI ^b (38.8%) | ^a NI ^b (3.5%) | – | – | – | – | – | – | – | –
4 | OC[C@H](O)[C@@H]1[C@H](O)[C@H](O)CN1Cc1ccc(B(O)O)cc1 [para 8, N-(4-Methylphenylboronic acid)-1,4-dideoxy-1,4-imino-L-gulitol] | – | – | – | – | – | – | 22.9% | ^a NI ^b (10.5%) | ^a NI ^b (28%) | ^a NI ^b (27.1%) | ^a NI ^b (6.0%) | – | – | – | – | – | – | – | –
5 | N[C@@H](Cc1ccc(B(O)O)cc1)C(=O)O [^10B-BPA, reference compound] | – | – | ^c NI ^d (0%) | ^c NI ^d (0%) | ^c NI ^d (14.2%) | ^c NI ^d (0%) | – | – | – | – | – | ^c NI ^d (2.4%) | ^c NI ^d (0%) | below 30% | 6.3% | −0.7% | – | – | –
6 | borocaptate sodium [BSH, reference compound] | – | – | – | – | – | – | – | ^a NI ^b (0%) | ^a NI ^b (0%) | ^a NI ^b (15%) | ^a NI ^b (19.6%) | – | – | 31.6–65.9% | 37.1% | −18.7% | ^a NI ^b (6%) | ^a NI ^b (0%) | –
7 | CC1(C)O[C@H]2O[C@H]3[C@@H]([C@H]2O1)N(Cc1ccccc1)C[C@H]3O [Compound 3, N-Benzyl-3,6-dideoxy-3,6-imino-1,2-O-isopropylidene-α-D-gulofuranose] | 2.4% | 26.1% | ^c NI ^d (0%) | ^c NI ^d (0%) | ^c NI ^d (31.9%) | ^c NI ^d (0%) | – | – | – | – | – | – | – | – | −0.1% | – | – | – | -30.6%
8 | OC1O[C@@H]2[C@H]([C@H]1O)N(Cc1ccccc1)C[C@H]2O (stereo partly drawn) [Compound 4, N-Benzyl-3,6-dideoxy-3,6-imino-D-gulofuranose] | – | – | – | – | – | – | 7% | ^a NI ^b (22.4%) | ^a NI ^b (27.4%) | ^a NI ^b (16.4%) | ^a NI ^b (7.0%) | – | – | – | −9.1% | – | – | – | -12.1%
9 | N[C@@H](Cc1ccc(B(O)O)cc1)C(=O)O [BPA, 4-borono-L-phenylalanine, reference compound] | – | 10.9% | ^c NI ^d (0%) | ^c NI ^d (0%) | ^c NI ^d (0%) | ^c NI ^d (7.4%) | – | – | – | – | – | – | – | below 30% | 6.7% | – | – | – | 0.6%

— publication PMC12472391, “Borylated Five-Membered Ring Iminosugars: Synthesis, Spectroscopic Analysis, and Biological Evaluation for Glycosidase Inhibition and Anticancer Properties for Application in Boron Neutron Capture Therapy (BNCT)—Part 1” (Pharmaceuticals, 2025)
